These molecules were tested against T1, human PAH with the R408W mutation (Homo sapiens, UniProt P00439, R408W) (assay: Cell Based Phenylalanine Flux Assay). Conditions: A375 cells expressing human PAH R408W; 24 hrs compound incubation; 13C-Tyrosine by LC-MS; average where tested multiple times; read-out: AC50.
T1 construct: expressed in transfected cells
T1 sequence (P00439 1-452 R408W): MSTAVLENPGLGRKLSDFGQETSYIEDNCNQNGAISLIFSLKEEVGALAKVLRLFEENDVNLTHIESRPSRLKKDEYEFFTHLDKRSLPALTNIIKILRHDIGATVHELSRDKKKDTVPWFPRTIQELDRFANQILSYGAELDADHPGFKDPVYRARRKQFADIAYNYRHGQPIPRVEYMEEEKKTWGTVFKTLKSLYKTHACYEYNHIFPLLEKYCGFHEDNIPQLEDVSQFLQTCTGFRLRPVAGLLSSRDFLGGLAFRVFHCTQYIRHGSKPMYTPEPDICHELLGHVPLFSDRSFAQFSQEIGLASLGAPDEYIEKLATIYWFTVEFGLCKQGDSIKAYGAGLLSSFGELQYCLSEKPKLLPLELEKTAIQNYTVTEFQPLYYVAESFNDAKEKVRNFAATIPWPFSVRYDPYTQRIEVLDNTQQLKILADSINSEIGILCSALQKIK
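Further: after compound treatment, cells received sepiapterin plus isotope-labelled Phenylalanine for 4 hours, then labelled Tyrosine in the medium was quantified, 10-point 2-fold dilution series run in duplicate.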

Row | SMILES | AC50
1 | O=C(c1nnc(-c2ccccn2)o1)N1CCc2[nH]cnc2[C@H]1c1cc2ccc(C(F)(F)F)cn2n1 [Example 2414, (S)-(5-(pyridin-2-yl)-1,3,4-oxadiazol-2-yl)(4-(6-(trifluoromethyl)pyrazolo[1,5-a]pyridin-2-yl)-6,7-dihydro-1H-imidazo[4,5-c]pyridin-5(4H)-yl)methanone] | 1 to 5 µM
2 | O=C(c1nnc(-c2ccccn2)o1)N1CCc2[nH]cnc2[C@@H]1c1cc2ccc(C(F)(F)F)cn2n1 [Example 2415, (R)-(5-(pyridin-2-yl)-1,3,4-oxadiazol-2-yl)(4-(6-(trifluoromethyl)pyrazolo[1,5-a]pyridin-2-yl)-6,7-dihydro-1H-imidazo[4,5-c]pyridin-5(4H)-yl)methanone] | 1 to 5 µM
3 | O=C(c1cnn2ccccc12)N1CCc2[nH]cnc2[C@H]1c1cc2cccc(Cl)n2n1 [Example 2424, (S)-(4-(7-chloropyrazolo[1,5-a]pyridin-2-yl)-6,7-dihydro-1H-imidazo[4,5-c]pyridin-5(4H)-yl)(pyrazolo[1,5-a]pyridin-3-yl)methanone] | 1 to 5 µM
4 | O=C(c1nnc(-c2cnn(C(F)(F)F)c2)o1)N1CCc2[nH]cnc2[C@H]1c1cc2ccccn2n1 [Example 2426, (S)-(4-(pyrazolo[1,5-a]pyridin-2-yl)-6,7-dihydro-1H-imidazo[4,5-c]pyridin-5(4H)-yl)(5-(1-(trifluoromethyl)-1H-pyrazol-4-yl)-1,3,4-oxadiazol-2-yl)methanone] | 1 to 5 µM
5 | O=C(c1nnc(-c2cnn(C(F)(F)F)c2)o1)N1CCc2[nH]cnc2[C@@H]1c1cc2ccccn2n1 [Example 2427, (R)-(4-(pyrazolo[1,5-a]pyridin-2-yl)-6,7-dihydro-1H-imidazo[4,5-c]pyridin-5(4H)-yl)(5-(1-(trifluoromethyl)-1H-pyrazol-4-yl)-1,3,4-oxadiazol-2-yl)methanone] | > 5 µM
6 | Fc1cccn2nc([C@@H]3c4nc[nH]c4CCN3c3nnc(C4CC4)o3)cc12 [Example 2433, (S)-2-cyclopropyl-5-(4-(4-fluoropyrazolo[1,5-a]pyridin-2-yl)-6,7-dihydro-1H-imidazo[4,5-c]pyridin-5(4H)-yl)-1,3,4-oxadiazole] | 1 to 5 µM
7 | Cn1cc(-c2ccc3c(C(=O)N4CCc5[nH]cnc5[C@H]4c4cc5c(F)cccn5n4)cnn3c2)cn1 [Example 2434, (S)-(4-(4-fluoropyrazolo[1,5-a]pyridin-2-yl)-6,7-dihydro-1H-imidazo[4,5-c]pyridin-5(4H)-yl)(6-(1-methyl-1H-pyrazol-4-yl)pyrazolo[1,5-a]pyridin-3-yl)methanone] | 1 to 5 µM
8 | Cn1cc(-c2ccc3c(C(=O)N4CCc5[nH]cnc5[C@@H]4c4cc5c(F)cccn5n4)cnn3c2)cn1 [Example 2435, (R)-(4-(4-fluoropyrazolo[1,5-a]pyridin-2-yl)-6,7-dihydro-1H-imidazo[4,5-c]pyridin-5(4H)-yl)(6-(1-methyl-1H-pyrazol-4-yl)pyrazolo[1,5-a]pyridin-3-yl)methanone] | > 5 µM
9 | COCc1ccc2c(C(=O)N3CCc4[nH]cnc4[C@H]3c3cc4c(C)cccn4n3)cnn2c1 [Example 2436, (S)-(6-(methoxymethyl)pyrazolo[1,5-a]pyridin-3-yl)(4-(4-methylpyrazolo[1,5-a]pyridin-2-yl)-6,7-dihydro-1H-imidazo[4,5-c]pyridin-5(4H)-yl)methanone] | 1 to 5 µM
10 | COCc1ccc2c(C(=O)N3CCc4[nH]cnc4[C@@H]3c3cc4c(C)cccn4n3)cnn2c1 [Example 2437, (R)-(6-(methoxymethyl)pyrazolo[1,5-a]pyridin-3-yl)(4-(4-methylpyrazolo[1,5-a]pyridin-2-yl)-6,7-dihydro-1H-imidazo[4,5-c]pyridin-5(4H)-yl)methanone] | > 5 µM
11 | Cc1nnc(N2CCc3[nH]cnc3[C@H]2c2cc3c(C)cccn3n2)o1 [Example 2443, (S)-2-methyl-5-(4-(4-methylpyrazolo[1,5-a]pyridin-2-yl)-6,7-dihydro-1H-imidazo[4,5-c]pyridin-5(4H)-yl)-1,3,4-oxadiazole] | 1 to 5 µM
12 | Cn1cc(-c2nnc(C(=O)N3CCc4[nH]cnc4[C@H]3c3cc4c(OC(F)F)cccn4n3)o2)cn1 [Example 2445, (S)-(4-(4-(difluoromethoxy)pyrazolo[1,5-a]pyridin-2-yl)-6,7-dihydro-1H-imidazo[4,5-c]pyridin-5(4H)-yl)(5-(1-methyl-1H-pyrazol-4-yl)-1,3,4-oxadiazol-2-yl)methanone] | 1 to 5 µM
13 | COc1cccn2nc([C@@H]3c4nc[nH]c4CCN3C(=O)c3nnc(-c4cnn(C(F)F)c4)o3)cc12 [Example 2446, (S)-(5-(1-(difluoromethyl)-1H-pyrazol-4-yl)-1,3,4-oxadiazol-2-yl)(4-(4-methoxypyrazolo[1,5-a]pyridin-2-yl)-6,7-dihydro-1H-imidazo[4,5-c]pyridin-5(4H)-yl)methanone] | 1 to 5 µM
14 | COc1cccn2nc([C@H]3c4nc[nH]c4CCN3C(=O)c3nnc(-c4cnn(C(F)F)c4)o3)cc12 [Example 2447, (R)-(5-(1-(difluoromethyl)-1H-pyrazol-4-yl)-1,3,4-oxadiazol-2-yl)(4-(4-methoxypyrazolo[1,5-a]pyridin-2-yl)-6,7-dihydro-1H-imidazo[4,5-c]pyridin-5(4H)-yl)methanone] | > 5 µM

Next, values leading:

Row | AC50 | SMILES
15 | 1 to 5 µM | Cn1nc(C(F)(F)F)nc1C(=O)N1CCc2[nH]cnc2[C@H]1c1cc2cccc(Cl)n2n1 [Example 2412, (S)-(4-(7-chloropyrazolo[1,5-a]pyridin-2-yl)-6,7-dihydro-1H-imidazo[4,5-c]pyridin-5(4H)-yl)(1-methyl-3-(trifluoromethyl)-1H-1,2,4-triazol-5-yl)methanone]
16 | 1 to 5 µM | Cn1cc(-c2nnc(C(=O)N3CCc4[nH]cnc4[C@@H]3c3cc4ccc(C(F)(F)F)cn4n3)o2)cn1 [Example 2417, (R)-(5-(1-methyl-1H-pyrazol-4-yl)-1,3,4-oxadiazol-2-yl)(4-(6-(trifluoromethyl)pyrazolo[1,5-a]pyridin-2-yl)-6,7-dihydro-1H-imidazo[4,5-c]pyridin-5(4H)-yl)methanone]
17 | 1 to 5 µM | Cn1nc(C2CC2)nc1C(=O)N1CCc2[nH]cnc2[C@H]1c1cc2cccc(C(F)(F)F)n2n1 [Example 2419, (S)-(3-cyclopropyl-1-methyl-1H-1,2,4-triazol-5-yl)(4-(7-(trifluoromethyl)pyrazolo[1,5-a]pyridin-2-yl)-6,7-dihydro-1H-imidazo[4,5-c]pyridin-5(4H)-yl)methanone]
18 | 1 to 5 µM | CC(C)(F)c1nnc(C(=O)N2CCc3[nH]cnc3[C@H]2c2cc3ccc(C(F)(F)F)cn3n2)o1 [Example 2420, (S)-(5-(2-fluoropropan-2-yl)-1,3,4-oxadiazol-2-yl)(4-(6-(trifluoromethyl)pyrazolo[1,5-a]pyridin-2-yl)-6,7-dihydro-1H-imidazo[4,5-c]pyridin-5(4H)-yl)methanone]
19 | 1 to 5 µM | CC(C)(F)c1nnc(C(=O)N2CCc3[nH]cnc3[C@@H]2c2cc3ccc(C(F)(F)F)cn3n2)o1 [Example 2421, (R)-(5-(2-fluoropropan-2-yl)-1,3,4-oxadiazol-2-yl)(4-(6-(trifluoromethyl)pyrazolo[1,5-a]pyridin-2-yl)-6,7-dihydro-1H-imidazo[4,5-c]pyridin-5(4H)-yl)methanone]
20 | 1 to 5 µM | Cc1nc([C@H](C)O)oc1C(=O)N1CCc2[nH]cnc2[C@H]1c1cc2cccc(C(F)(F)F)n2n1 [Example 2422, (2-((S)-1-hydroxyethyl)-4-methyloxazol-5-yl)((S)-4-(7-(trifluoromethyl)pyrazolo[1,5-a]pyridin-2-yl)-6,7-dihydro-1H-imidazo[4,5-c]pyridin-5(4H)-yl)methanone]
21 | 1 to 5 µM | O=C(c1nnc(-c2cnn(C(F)(F)F)c2)o1)N1CCc2[nH]cnc2[C@@H]1c1cc2cccc(C(F)(F)F)n2n1 [Example 2429, (R)-(5-(1-(trifluoromethyl)-1H-pyrazol-4-yl)-1,3,4-oxadiazol-2-yl)(4-(7-(trifluoromethyl)pyrazolo[1,5-a]pyridin-2-yl)-6,7-dihydro-1H-imidazo[4,5-c]pyridin-5(4H)-yl)methanone]
22 | 1 to 5 µM | O=C(c1nnc(C2CCC2)o1)N1CCc2[nH]cnc2[C@H]1c1cc2cccc(C(F)(F)F)n2n1 [Example 2430, (S)-(5-cyclobutyl-1,3,4-oxadiazol-2-yl)(4-(7-(trifluoromethyl)pyrazolo[1,5-a]pyridin-2-yl)-6,7-dihydro-1H-imidazo[4,5-c]pyridin-5(4H)-yl)methanone]
23 | 1 to 5 µM | O=C(c1nnc(C2CCC2)o1)N1CCc2[nH]cnc2[C@@H]1c1cc2cccc(C(F)(F)F)n2n1 [Example 2431, (R)-(5-cyclobutyl-1,3,4-oxadiazol-2-yl)(4-(7-(trifluoromethyl)pyrazolo[1,5-a]pyridin-2-yl)-6,7-dihydro-1H-imidazo[4,5-c]pyridin-5(4H)-yl)methanone]
24 | 1 to 5 µM | Cn1cc(-c2ccc3c(C(=O)N4CCc5[nH]cnc5[C@H]4c4cc5cccc(C(F)(F)F)n5n4)cnn3c2)cn1 [Example 2438, (S)-(6-(1-methyl-1H-pyrazol-4-yl)pyrazolo[1,5-a]pyridin-3-yl)(4-(7-(trifluoromethyl)pyrazolo[1,5-a]pyridin-2-yl)-6,7-dihydro-1H-imidazo[4,5-c]pyridin-5(4H)-yl)methanone]
25 | 1 to 5 µM | FC(F)(F)c1cccc2cc([C@@H]3c4nc[nH]c4CCN3c3nnc(-c4ccccn4)o3)nn12 [Example 2440, (S)-2-(pyridin-2-yl)-5-(4-(7-(trifluoromethyl)pyrazolo[1,5-a]pyridin-2-yl)-6,7-dihydro-1H-imidazo[4,5-c]pyridin-5(4H)-yl)-1,3,4-oxadiazole]

Reference: patent US20230365592A1 (Agios Pharmaceuticals, Inc., priority 2022, published 2023)
